Results reported in ChEMBL document CHEMBL1155854, “Conformationally constrained farnesoid X receptor (FXR) agonists: Naphthoic acid-based analogs of GW 4064” (Bioorg Med Chem Lett, 2008).

Assays:
Bile acid receptor [1] = target: T1, Bile acid receptor (Homo sapiens, UniProt Q96RI1); experiment: Agonist activity at FXR assessed as receptor-SRC-1 peptide interaction by FRET assay; format: functional
T1 sequence (Q96RI1 whole entry): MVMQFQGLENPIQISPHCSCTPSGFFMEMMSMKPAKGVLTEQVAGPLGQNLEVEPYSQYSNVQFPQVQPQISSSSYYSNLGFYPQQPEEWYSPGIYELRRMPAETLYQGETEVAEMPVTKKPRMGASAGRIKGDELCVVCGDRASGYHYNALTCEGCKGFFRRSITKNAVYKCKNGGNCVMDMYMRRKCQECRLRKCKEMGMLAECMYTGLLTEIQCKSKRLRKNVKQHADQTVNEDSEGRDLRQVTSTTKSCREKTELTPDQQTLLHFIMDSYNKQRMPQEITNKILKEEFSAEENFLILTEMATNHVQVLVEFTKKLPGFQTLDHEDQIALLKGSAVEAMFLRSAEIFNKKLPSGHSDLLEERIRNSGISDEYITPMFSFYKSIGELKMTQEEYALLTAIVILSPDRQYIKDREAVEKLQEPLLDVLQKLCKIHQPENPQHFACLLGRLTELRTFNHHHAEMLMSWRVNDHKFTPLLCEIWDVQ

Bile acid receptor [2] = target: T1, Bile acid receptor; experiment: Agonist activity at FXR expressed in african green monkey CV1 cells by luciferase reporter transient transfection assay; format: functional, cell-based, CV-1
[3] = target: T2, Bile acid receptor (Homo sapiens) (UniProt Q96RI1); experiment: Agonist activity at FXR expressed in african green monkey CV1 cells by luciferase reporter transient transfection assay relative to GW-4064; format: functional, cell-based; details: CV-1
T2 sequence (whole entry): T1 sequence (Q96RI1 whole entry)

[4] = target: T2, Bile acid receptor (Homo sapiens); experiment: Agonist activity at FXR assessed as receptor-SRC-1 peptide interaction by FRET assay relative to GW-4064; format: functional

CC(C)c1onc(-c2c(Cl)cccc2Cl)c1COc1ccc(-c2ccc3ccc(C(=O)O)cc3c2)cc1
EC50 (Bile acid receptor [1]): 420 nM | EC50 (Bile acid receptor [2]): 500 nM | %max [3]: 90% | %max [4]: 69%

CC(C)c1onc(-c2c(Cl)cccc2Cl)c1COc1ccc(-c2ccc3cccc(C(=O)O)c3c2)cc1
EC50 (Bile acid receptor [1]): 2300 nM | EC50 (Bile acid receptor [2]): 3300 nM | %max [3]: 27% | %max [4]: 52%

CC(C)c1onc(-c2c(Cl)cccc2Cl)c1COc1ccc(-c2ccc3cc(C(=O)O)ccc3c2)cc1
EC50 (Bile acid receptor [1]): 100 nM | EC50 (Bile acid receptor [2]): 45 nM | %max [3]: 87% | %max [4]: 90%
